As usually defined, the IC50 is the concentration that gives 50% inhibition. For orientation: melting point means the temperature of the solid-liquid transition.

The values that follow come from publication PMC5986738, “Thiazole Amides, A Novel Class of Algaecides against Freshwater Harmful Algae” (Scientific Reports, 2018).

Data set [1] deals with dinoflagellates and raphidophytes. More on the design: method as in doi:10.1016/j.tetlet.2003.08.115, PMID 17988095. The note with it: cited from earlier work.
A further data set concerns M. aeruginosa. Nature of the data set: Algicidal activity (growth inhibition, microplate, absorbance 650 nm) against M. aeruginosa. The note with it: for IC50: Microcystis aeruginosa, read-out: IC50 value M. aeruginosa; for IC50 / IC50 value M. aeruginosa: 96-hour IC50, mean ± SD; for growth inhibitory ratio: 3.13 μg/mL. Format: cell-based. On the procedure: (§1) According to the method established by Schrader et al.[42], algicidal activity of alkaloid (1) and its amide analogues (7–32), as well as their hydrochloric salts (7S–27S), was evaluated against three typical […] algae, S. obliqnus, M. aeruginosa, and C. Pyrenoidosa at different concentrations. After three algae species were inoculated, the variation of algae density over 7 days were recorded continuously. […] The wavelength at 650 nm was determined as ideal incident wavelength for the measurement of algae density. Three […] algae S. obliqnus, M. aeruginosa, and C. pyrenoidosa were offered by Freshwater algae culture collection of the institute of Hydrobiology (FACHB-collection). Each culture for three species was maintained separately in continuous, steady-state growth microplates, which were placed in a growth chamber held at 28 ± 1 °C and illuminated continuously under fluorescent lights at a photon flux density of […]. Absorbance values of each wells were measured by a Packard model Spectra Count microplate photometer.
(§2) Alkaloid (1) and its analogues (7–32), as well as their hydrochloric salts (7S–27S), were dissolved separately in DMSO to provide stock solution concentrations. Initially, each stock solution was aseptically pipetted into the bottom of separate wells (20 μL per well) in a 96-well microplate and the final test concentrations for each sample were 0, 0.78, 1.56, 3.12, 6.25, 12.5, and 25 μg/mL. Wells of control samples contained only unialgal culture. The solution of CuSO4 and Diuron at the same concentration were chose as the reference sample. Each experiment was performed at least three times. Through measuring the area values under the individual growth curves, the inhibitory rate (%) for the individual tested concentration was calculated according to the following equation (1):1 Ii=(Ac−Ai)/[…]×100% • Ii: inhibitory rate of biomass growth by toxicant concentration i (%) • Ac: average area under the growth curve by control sample • Ai: average area under the growth curve by test concentration i
(§3) Mean values of 96-hour IC50 were determined for each group of plates, and standard deviation were calculated and reported as the mean ± SD.
(§4) The IC50 values of all compounds against three freshwater algae species were calculated using SPSS v19.0, and the algicidal activities of alkaloid (1) and its amide analogues (7–32), as well as the corresponding hydrochloric salts (7S–27S) are listed in Table 1 and 2, respectively.
Currently, M. aeruginosa appears to be the most harmful algae existing in the freshwater bodies in the developing countries. To investigate growth inhibitory potential of this class of thiazole amides on M. aeruginosa, thiazole amide (10) and its hydrochloric acid salt (10S) were subject to further survey for the optimal inhibition time and concentration (Figs 3 and 4). […] The variation of growth inhibitory ratios of compounds (10) and (10S) against M. aeruginosa at the lowest complete inhibition concentration is illustrated in Fig. 4. As observed, for administration of thiazole amide (10), the growth inhibitory ratios after 96 and 120 hours increase gradually to 79% and 92%, respectively. Under the same experimental conditions, growth inhibitory ratios for the salt (10S) are 82% and 88%, respectively.

The subject of the next data set is C. pyrenoidosa. In words: Algicidal activity (growth inhibition, microplate, absorbance 650 nm) against C. pyrenoidosa. Format: cell-based, Chlorella pyrenoidosa. The note with it: 96-hour IC50, mean ± SD; for IC50: Auxenochlorella pyrenoidosa, read-out: IC50 value C. pyrenoidosa. The procedure: as §1, §2, §3, §4
The test system of a further data set is S. obliqnus. In words: Algicidal activity (growth inhibition, microplate, absorbance 650 nm) against S. obliqnus. The note with it: for algicidal activity, times higher than CuSO4 and Diuron: S. obliqnus, from IC50 values; for IC50: 96 h, read-out: IC50 value S. obliqnus; for IC50 / IC50 value S. obliqnus: 96-hour IC50, mean ± SD. The data set is classed as cell-based. On the procedure:
as §1, §2, §3, §4

A further data set deals with Brassica campestris. In words: Herbicidal activity against terrestrial plant B. campestris. As to conditions: n.a.: no activity. The data set is classed as in vivo. The procedure:
(§5) Toxicity of this class of thiazole amides towards non-target organisms, such as higher plants and fishes, was evaluated preliminarily using compound (10) as a representative sample. Herbicidal activity of compound (10) against two terrestrial plants, Brassica campestris and Echinochloa crusgalli, and two aquatic plants, Ceratophyllum demersum L and Hydrilla verticillata, was evaluated at a concentration of 500 mg/L using a previously reported method. In addition, toxicity of compound (10) toward fish Barchydanio rerio var was also tested at the concentrations of 200 mg/L and 100 mg/L, respectively.

A further data set relates to Echinochloa crusgalli. Nature of the data set: Herbicidal activity against terrestrial plant E. crusgalli. As to conditions: n.a.: no activity. Format: in vivo. The procedure:
as §5

The test system of a further data set is Ceratophyllum demersum L. Nature of the data set: Herbicidal activity against aquatic plant C. demersum L. The data set is classed as in vivo. The note with it: n.a.: no activity. The procedure:
as §5

The next data set relates to Hydrilla verticillata. Nature of the data set: Herbicidal activity against aquatic plant H. verticillata. Format: in vivo. The note with it: n.a.: no activity. The procedure:
as §5

The next data set concerns Barchydanio rerio var. In words: Toxicity toward fish. The data set is classed as in vivo. The note with it: for Survival ratio in 7 days: fish. On the procedure: as §5
The test system of the next data set is Microcystis aeruginosa. The arrangement: method as in PMID 16468755, PMID 16378379. As to conditions: cited from earlier work.
On the set-up of data set [2]: method as in PMID 16468755, PMID 16378379. As to conditions: Synechococcus obliqnus; cited from earlier work.
The test system of the next data set is Kirchneriella contorta. The arrangement: method as in PMID 16468755, PMID 16378379. As to conditions: cited from earlier work.

Converted amounts (≈) assume the structure as drawn.

In the case of `CC(=O)c1nc(C(=O)NCCc2c[nH]c3ccccc23)cs1` [bacillamide A], the “antibiotic activity (in words)” value in data set [1] is recorded as “potent antibiotic activity”.

For `C[C@H](N)c1nc(C(=O)Nc2ccccc2)cs1` [compound 7], the melting point lay within 117 to 122 °C. In addition, the IC50 in the data set with M. aeruginosa is 11.2 ± 1.12 µg/mL (≈ 45.1 µM). In addition, the IC50 with C. pyrenoidosa was determined as 4.61 ± 0.45 µg/mL (≈ 18.6 µM).

Turning to `C[C@H](N)c1nc(C(=O)Nc2ccc(Br)cc2)cs1` [compound 10], the “algicidal activity, times higher than CuSO4 and Diuron” value in the data set on S. obliqnus is reported as “more than 10 times”. Moreover, the growth inhibitory ratio with M. aeruginosa (after 96 hours) was 79%; in the data set on M. aeruginosa (after 120 hours) it was 92%. The IC50 amounted to 1.51 ± 0.11 µg/mL (≈ 4.63 µM) in the data set on M. aeruginosa and 1.52 ± 0.05 µg/mL (≈ 4.66 µM) with C. pyrenoidosa. Also, in the data set on Brassica campestris, the “Herbicidal activity (500 mg/L) B. campestris” value is “none-toxic”. The “Herbicidal activity (500 mg/L) E. crusalli” value in the data set with Echinochloa crusgalli is listed as “none-toxic”. In addition, in the data set with Ceratophyllum demersum L, the “Herbicidal activity (500 mg/L) C. demersum L.” value was “none-toxic”. Besides, in the data set on Hydrilla verticillata, the “Herbicidal activity (500 mg/L) H. verticillata” value was “none-toxic”. Moreover, in the data set on Barchydanio rerio var (100 and 200 mg/L), the “toxicity toward fish (in words)” value was “safe”. Also, the “Survival ratio in 7 days” value in the data set on Barchydanio rerio var (dosage 100 mg/L) and in the data set on Barchydanio rerio var (dosage 200 mg/L) was 100% each time.

Compound `COc1ccc(NC(=O)c2csc([C@H](C)N)n2)cc1` [compound 12] returned a melting point of 126 to 127 °C. For the same compound, in the data set on S. obliqnus, the “algicidal activity, times higher than CuSO4 and Diuron” value is listed as “more than 10 times”. Also, the IC50 with M. aeruginosa stood at 2.35 ± 0.91 µg/mL (≈ 8.47 µM). Moreover, the IC50 in the data set on C. pyrenoidosa amounted to 17.4 ± 0.92 µg/mL (≈ 62.6 µM).

`C[C@H](N)c1nc(C(=O)Nc2cccc(Cl)c2)cs1` [compound 14] had a melting point of 155 to 159 °C. Also, the IC50 in the data set on S. obliqnus is 1.52 ± 0.12 µg/mL (≈ 5.39 µM). Also, in the data set on M. aeruginosa, the IC50 was 5.19 ± 0.19 µg/mL (≈ 18.4 µM). In addition, the IC50 with C. pyrenoidosa worked out at 4.37 ± 0.14 µg/mL (≈ 15.5 µM).

Compound `Cc1cccc(NC(=O)c2csc([C@H](C)N)n2)c1` [compound 16] displayed a melting point of 135 to 137 °C. Besides, in the data set with S. obliqnus, the IC50 was found to be 2.86 ± 0.14 µg/mL (≈ 10.9 µM). In addition, the 50% inhibitory concentration (IC50) in the data set with M. aeruginosa came to 24.2 ± 3.12 µg/mL (≈ 92.4 µM). Also, in the data set with C. pyrenoidosa, the IC50 is 7.18 ± 0.05 µg/mL (≈ 27.5 µM).

Take `COc1ccccc1NC(=O)c1csc([C@H](C)N)n1` [compound 22]: the melting point lay in the range of 82 to 84 °C. The IC50 in the data set with S. obliqnus was below 1 µg/mL. Further, the IC50 with M. aeruginosa amounted to 3.12 ± 0.56 µg/mL (≈ 11.2 µM). The IC50 in the data set with C. pyrenoidosa is 2.19 ± 0.71 µg/mL (≈ 7.9 µM).

Regarding `CC(=O)c1ccc(NC(=O)c2csc([C@H](C)N)n2)cc1` [compound 27], the melting point fell in the range of 139 to 141 °C. The IC50 with S. obliqnus amounted to 4.73 ± 0.54 µg/mL (≈ 16.3 µM). Further, the IC50 in the data set with M. aeruginosa stood at 2.33 ± 0.32 µg/mL (≈ 8.05 µM). Further, in the data set with C. pyrenoidosa, the IC50 is 2.84 ± 0.23 µg/mL (≈ 9.81 µM).

With `CC(N)c1nc(C(=O)Nc2ccccn2)cs1` (centres unmarked) [compound 28], the “IC50 value S. obliqnus” value in the data set with S. obliqnus was found to be 3.97 ± 0.17 µg/mL (≈ 16 µM). Besides, the “IC50 value M. aeruginosa” value with M. aeruginosa is 3.09 ± 0.15 µg/mL (≈ 12.4 µM). In addition, in the data set with C. pyrenoidosa, the “IC50 value C. pyrenoidosa” value was 14.76 ± 1.26 µg/mL (≈ 59.4 µM).

On to `C[C@H](N)c1nc(C(=O)NC(C)(C)C)cs1` [compound 29], for which the IC50 in the data set with S. obliqnus stood at 6.23 ± 0.98 µg/mL (≈ 27.4 µM); in the data set with M. aeruginosa, 5.31 ± 0.45 µg/mL (≈ 23.4 µM); in the data set with C. pyrenoidosa, 3.46 ± 0.67 µg/mL (≈ 15.2 µM).

In the case of `CCCCNC(=O)c1csc([C@H](C)N)n1` [compound 30], the melting point was 109 to 111 °C. Besides, the IC50 in the data set with S. obliqnus was found to be 5.23 ± 0.36 µg/mL (≈ 23 µM). In the data set on M. aeruginosa, the IC50 is 5.47 ± 0.41 µg/mL (≈ 24.1 µM). In addition, the IC50 with C. pyrenoidosa is 4.65 ± 0.25 µg/mL (≈ 20.5 µM).

On to `C[C@H](N)c1nc(C(=O)NCCc2ccccc2)cs1` [compound 31], for which the figures for the concentration for half-maximal inhibition (IC50) with S. obliqnus, in the data set with M. aeruginosa and in the data set on C. pyrenoidosa were 5.98 ± 0.49 µg/mL (≈ 21.7 µM), 57.5 ± 6.26 µg/mL (≈ 209 µM) and 2.84 ± 0.56 µg/mL (≈ 10.3 µM), respectively.

`C[C@H](N)c1nc(C(=O)NCc2ccccc2)cs1` [compound 32] returned a melting point of 64 to 67 °C. The IC50 in the data set on S. obliqnus is 100.2 ± 0.34 µg/mL (≈ 383 µM). Besides, the IC50 with M. aeruginosa amounted to 9.48 ± 1.08 µg/mL (≈ 36.3 µM). Also, in the data set with C. pyrenoidosa, the IC50 is 4.16 ± 0.88 µg/mL (≈ 15.9 µM).

Take `C[n+]1ccc2c(c1)[nH]c1ccc(Cl)cc12` [nostocarboline]: the IC50 with Microcystis aeruginosa was 2.1 µM; in [2] it was 5.8 µM; with Kirchneriella contorta it was 29.1 µM.

For the compound “N-(2-(1H-indol-3-yl)ethyl)-2-acetylthiazole-4-carboxamide [Alkaloid (1)]”, in the data set on S. obliqnus, the “IC50 value S. obliqnus” value worked out at 14.33 ± 1.15 µg/mL. The “IC50 value M. aeruginosa” value with M. aeruginosa was 114.60 ± 3.35 µg/mL. The “IC50 value C. pyrenoidosa” value with C. pyrenoidosa worked out at 381.57 ± 5.16 µg/mL.
